Consider 2 molecules from patent US20240224993A1, “ANTIMICROBIAL COMPOSITIONS” (GOJO Industries, Inc., priority 2009, published 2024).

Experiment [1] relates to S. marcescens #14756. The experiment is described as follows: ASTM E 2315 time-kill procedure, S. marcescens. Type of experiment: cell-based. As to conditions: contact time 15 seconds. On the procedure: (§1) In vitro efficacy of these compositions was measured against E. coli, S. aureus, E. faecium, S. marcescens, S. aureus (MRSA), P. mirabilis, K. pneumoniae, and S. epidermidis. The test was conducted according to the ASTM E 2315 method, “Standard Guide for Assessment of Antimicrobial Activity Using a Time-Kill Procedure.” Contact time was 15 seconds.
(§2) In vitro efficacy of these compositions was measured against S. marcescen, and S. aureus. The test was conducted according to the ASTM E 2315 method, “Standard Guide for Assessment of Antimicrobial Activity Using a Time-Kill Procedure.” Contact time was 15 seconds.

For experiment [2], the system named is S. aureus #6538. The experiment can be described thus: ASTM E 2315 time-kill procedure, S. aureus. The format is cell-based. As to conditions: contact time 15 seconds. The protocol:
as §1, §2

The mark [3] stands for this setting: 0.5 wt. % diol, 0 wt. % ethanol.
[4] abbreviates: 0.5 wt. % diol, 15 wt. % ethanol.
[5] abbreviates: 0.5 wt. % diol, 30 wt. % ethanol.
Setting [6] is: 1.0 wt. % diol, 0 wt. % ethanol.
Where [7] appears, read: 1.0 wt. % diol, 15 wt. % ethanol.
Where [8] appears, read: 1.0 wt. % diol, 30 wt. % ethanol.

Regarding `CCCCCCC(O)CO` (centres unmarked) [1,2-octanediol], the “Log Reduction-S. marcescens #14756” value in experiment [1] (setting [3]) is listed as 0.3 log; in experiment [1] (setting [4]), 0.1 log; in experiment [1] (setting [5]) it was over 5.1 log; in experiment [1] (setting [6]), 3.5 log; in experiment [1] (setting [7]), 2.3 log; in experiment [1] (setting [8]), over 5.1 log. Besides, the “Log Reduction-S. aureus #6538” value in experiment [2] (setting [3]) is listed as 0 log; in experiment [2] (setting [4]) it was 0.2 log; in experiment [2] (setting [5]), 0.1 log; in experiment [2] (setting [6]), 0.2 log; in experiment [2] (setting [7]), 2.6 log; in experiment [2] (setting [8]), 0.9 log.
Turning to `CCO` [ethanol], in experiment [1] (0 wt. % diol, 30 wt. % ethanol), the “Log Reduction-S. marcescens #14756” value was determined as 0.45 log. Besides, the “Log Reduction-S. aureus #6538” value in experiment [2] (0 wt. % diol, 30 wt. % ethanol) is listed as 0 log.
